Like-named read-outs stand apart in the source and are kept apart here. Where a SMILES comes first, the peptide text is derived from it.
How the values were obtained:
Format in all cases: cell-based
[1] = system: Acinetobacter baumannii DSM 30008
Experimental: (§1) Stock solutions were kept at +4° C., light protected.
(§2) The selective antimicrobial activities of the peptides were determined in 96-well plates (Greiner, polystyrene) by the standard NCCLS broth microdilution method (National Committee for Clinical Laboratory Standards 1993. Methods for dilution antimicrobial susceptibility tests for bacteria that grow aerobically, 3rd ed. Approved standard M7-A6; National Committee for Clinical laboratory standards, Wayne, Pa.) with slight modifications. Inocula of the microorganisms were diluted into Mueller-Hinton II (MH, cation adjusted) broth and compared with a 0.5 McFarland standard to give appr. 10^6 colony forming units (CFU)/mL. Aliquots (90 μl) of inoculate were added to 10 μl of MH broth+P-80 (Polysorbate 80, 0.002% final concentration) containing the peptide in serial two-fold dilutions. The following microorganisms were used to determine antibiotic selectivity of the peptides: Escherichia coli ATCC 25922, Klebsiella pneumoniae ATCC 13883 and Acinetobacter baumannii DSM 30008.

[2] = system: Escherichia coli ATCC 25922
Experimental: as §1, §2

[3] = system: Klebsiella pneumoniae ATCC 13883
Experimental: as §1, §2

[4] = system: human red blood cells (hRBC); experiment: Hemolysis of human red blood cells
Experimental: as §1
Percent hemolysis was calculated as follows: (OD540peptide/OD540H2O)×100%.

[5] = Mueller-Hinton broth II, 0.002% P-80, 18-20 hours at 35° C.
[6] = 100 μg/mL, 20% hRBC (v/v), 1 h at 37° C.

Compound	Acinetobacter baumannii DSM 30008 MIC [1, 5] [µg/mL]	Escherichia coli ATCC 25922 MIC [2, 5] [µg/mL]	Klebsiella pneumoniae ATCC 13883 MIC [3, 5] [µg/mL]	Hemolysis at 100 μg/mL [4, 6] [%]	Acinetobacter baumannii DSM 30008 MIC ([1]; DSM 30008) [µg/mL]	Escherichia coli ATCC 25922 MIC ([2]; ATCC 25922) [µg/mL]	Klebsiella pneumoniae ATCC 13883 MIC ([3]; ATCC 13883) [µg/mL]	Hemolysis at 100 μg/mL ([4]; red cells of human, 1 h, 100) [%]
CC(C)C[C@@H]1NC(=O)[C@H](CCN)NC(=O)[C@H]2CCCN2C(=O)[C@H](C(C)C)NC(=O)[C@@H]2CSSC[C@H](NC1=O)C(=O)N[C@@H](Cc1ccc(O)cc1)C(=O)N[C@@H](C)C(=O)N[C@@H](CCN)C(=O)N[C@@H](CCN)C(=O)N[C@@H](CCN)C(=O)N[C@@H](Cc1c[nH]c3ccccc13)C(=O)N[C@@H](C)C(=O)N[C@@H](C(C)C)C(=O)N2 [Example 1, cyclo(-Leu-Cys-Tyr-Ala-Dab-Dab-Dab-Trp-Ala-Val-Cys-Val-^DPro-Dab-)] (HELM PEPTIDE1{A.[Dab].[Dab].[Dab].W.A.V.C.V.[dP].[Dab].L.C.Y}$PEPTIDE1,PEPTIDE1,8:R3-13:R3|PEPTIDE1,PEPTIDE1,1:R1-14:R2$$$V2.0)	2.5	4	2	2	–	–	–	–
CC(C)C[C@@H]1NC(=O)[C@H](CCN)NC(=O)[C@H]2CCCN2C(=O)[C@H](C(C)C)NC(=O)[C@@H]2CSSC[C@H](NC1=O)C(=O)N[C@@H](Cc1ccc(O)cc1)C(=O)N[C@@H](C)C(=O)N[C@@H](CCN)C(=O)N[C@H](CCN)C(=O)N[C@@H](CCN)C(=O)N[C@@H](Cc1c[nH]c3ccccc13)C(=O)N[C@@H](C)C(=O)N[C@@H](C(C)C)C(=O)N2 [Example 2, cyclo(-Leu-Cys-Tyr-Ala-Dab-^DDab-Dab-Trp-Ala-Val-Cys-Val-^DPro-Dab-)] (HELM PEPTIDE1{A.[Dab].[NCC[C@@H](N[*:1])C(=O)[*:2]].[Dab].W.A.V.C.V.[dP].[Dab].L.C.Y}$PEPTIDE1,PEPTIDE1,8:R3-13:R3|PEPTIDE1,PEPTIDE1,1:R1-14:R2$$$V2.0)	–	–	–	–	2.5	2	2	3
CC(C)C[C@@H]1NC(=O)[C@H](CCCCN)NC(=O)[C@H]2CCCN2C(=O)[C@H](C(C)C)NC(=O)[C@@H]2CSSC[C@H](NC1=O)C(=O)N[C@@H](Cc1ccc(O)cc1)C(=O)N[C@@H](C)C(=O)N[C@@H](CCCN)C(=O)N[C@H](CCN)C(=O)N[C@@H](CCN)C(=O)N[C@@H](Cc1c[nH]c3ccccc13)C(=O)N[C@@H](C)C(=O)N[C@@H](C(C)C)C(=O)N2 [Example 3, cyclo(-Leu-Cys-Tyr-Ala-Orn-^DDab-Dab-Trp-Ala-Val-Cys-Val-^DPro-Lys-)] (HELM PEPTIDE1{A.[Orn].[NCC[C@@H](N[*:1])C(=O)[*:2]].[Dab].W.A.V.C.V.[dP].K.L.C.Y}$PEPTIDE1,PEPTIDE1,8:R3-13:R3|PEPTIDE1,PEPTIDE1,1:R1-14:R2$$$V2.0)	–	–	–	–	1	2	4	3.5
CC(C)C[C@@H]1NC(=O)[C@H](CCCN)NC(=O)[C@H]2CCCN2C(=O)[C@H](C(C)C)NC(=O)[C@@H]2CSSC[C@H](NC1=O)C(=O)N[C@@H](Cc1ccc(O)cc1)C(=O)N[C@@H](C)C(=O)N[C@@H](CCCN)C(=O)N[C@H](CCN)C(=O)N[C@@H](CCN)C(=O)N[C@@H](Cc1c[nH]c3ccccc13)C(=O)N[C@@H](C)C(=O)N[C@@H](C(C)C)C(=O)N2 [Example 4, cyclo(-Leu-Cys-Tyr-Ala-Orn-^DDab-Dab-Trp-Ala-Val-Cys-Val-^DPro-Orn-)] (HELM PEPTIDE1{A.[Orn].[NCC[C@@H](N[*:1])C(=O)[*:2]].[Dab].W.A.V.C.V.[dP].[Orn].L.C.Y}$PEPTIDE1,PEPTIDE1,8:R3-13:R3|PEPTIDE1,PEPTIDE1,1:R1-14:R2$$$V2.0)	–	–	–	–	2	2	4	2.5
CC(C)C[C@@H]1NC(=O)[C@H](CCN)NC(=O)[C@H]2CCCN2C(=O)[C@H](C(C)C)NC(=O)[C@@H]2CSSC[C@H](NC1=O)C(=O)N[C@@H](Cc1ccc(O)cc1)C(=O)N[C@@H](C)C(=O)N[C@@H](CCCN)C(=O)N[C@H](CCN)C(=O)N[C@@H](CCN)C(=O)N[C@@H](Cc1c[nH]c3ccccc13)C(=O)N[C@@H](C)C(=O)N[C@@H](C(C)C)C(=O)N2 [Example 5, cyclo(-Leu-Cys-Tyr-Ala-Orn-^DDab-Dab-Trp-Ala-Val-Cys-Val-^DPro-Dab-)] (HELM PEPTIDE1{A.[Orn].[NCC[C@@H](N[*:1])C(=O)[*:2]].[Dab].W.A.V.C.V.[dP].[Dab].L.C.Y}$PEPTIDE1,PEPTIDE1,8:R3-13:R3|PEPTIDE1,PEPTIDE1,1:R1-14:R2$$$V2.0)	–	–	–	–	1	2	2	3
CC(C)C[C@@H]1NC(=O)[C@H](CN)NC(=O)[C@H]2CCCN2C(=O)[C@H](C(C)C)NC(=O)[C@@H]2CSSC[C@H](NC1=O)C(=O)N[C@@H](Cc1ccc(O)cc1)C(=O)N[C@@H](C)C(=O)N[C@@H](CCCN)C(=O)N[C@H](CCN)C(=O)N[C@@H](CCN)C(=O)N[C@@H](Cc1c[nH]c3ccccc13)C(=O)N[C@@H](C)C(=O)N[C@@H](C(C)C)C(=O)N2 [Example 6, cyclo(-Leu-Cys-Tyr-Ala-Orn-^DDab-Dab-Trp-Ala-Val-Cys-Val-^DPro-Dap-)] (HELM PEPTIDE1{A.[Orn].[NCC[C@@H](N[*:1])C(=O)[*:2]].[Dab].W.A.V.C.V.[dP].[NC[C@H](N[*:1])C(=O)[*:2]].L.C.Y}$PEPTIDE1,PEPTIDE1,8:R3-13:R3|PEPTIDE1,PEPTIDE1,1:R1-14:R2$$$V2.0)	–	–	–	–	1.5	2	2	5
CC[C@H](C)[C@@H]1NC(=O)[C@@H]2CCCN2C(=O)[C@H]2CCCN2C(=O)[C@H](Cc2ccc(O)cc2)NC(=O)[C@@H]2CSSC[C@H](NC1=O)C(=O)N[C@@H](Cc1ccc(O)cc1)C(=O)N[C@@H](CCN)C(=O)N[C@@H](CCCN)C(=O)N[C@H](CCN)C(=O)N[C@@H](CCN)C(=O)N[C@@H](CC(C)C)C(=O)N[C@@H](CCN)C(=O)N[C@@H](C(C)C)C(=O)N2 [Example 7, cyclo(-Ile-Cys-Tyr-Dab-Orn-^DDab-Dab-Leu-Dab-Val-Cys-Tyr-^DPro-Pro-)] (HELM PEPTIDE1{I.C.Y.[Dab].[Orn].[NCC[C@@H](N[*:1])C(=O)[*:2]].[Dab].L.[Dab].V.C.Y.[dP].P}$PEPTIDE1,PEPTIDE1,2:R3-11:R3|PEPTIDE1,PEPTIDE1,1:R1-14:R2$$$V2.0)	–	–	–	–	1	0.5	0.25	11
CC(C)[C@@H]1NC(=O)[C@@H]2CCCN2C(=O)[C@H]2CCCN2C(=O)[C@H]([C@@H](C)O)NC(=O)[C@@H]2CSSC[C@H](NC1=O)C(=O)N[C@@H](Cc1ccc(O)cc1)C(=O)N[C@@H](CCN)C(=O)N[C@@H](CN)C(=O)N[C@@H](CCN)C(=O)N[C@@H](CCN)C(=O)N[C@@H](Cc1c[nH]c3ccccc13)C(=O)N[C@@H](CCN)C(=O)N[C@@H](C(C)(C)C)C(=O)N2 [Example 8, cyclo(-Val-Cys-Tyr-Dab-Dap-Dab-Dab-Trp-Dab-tBuGly-Cys-Thr-^DPro-Pro-)] (HELM PEPTIDE1{V.C.Y.[Dab].[NC[C@H](N[*:1])C(=O)[*:2]].[Dab].[Dab].W.[Dab].[CC(C)(C)[C@H](N[*:1])C(=O)[*:2]].C.T.[dP].P}$PEPTIDE1,PEPTIDE1,2:R3-11:R3|PEPTIDE1,PEPTIDE1,1:R1-14:R2$$$V2.0)	2	1	0.5	1	–	–	–	–

Reference: patent US10259847B2, “Beta-hairpin peptidomimetics” (POLYPHOR AG, priority 2014, dated 2019)
